Where two headings read alike, the source gives them in different places.
Tests used:
CCRF-CEM cells [1] = test: Cell cycle analysis (PI staining); format: cell-based, human; conditions: 5 uM
Protocol: Control and treated cells were collected, fixed and stained with propidium iodide (100 μg/mL) in PBS containing sodium citrate (1 mg/mL), Triton-X-100 (0.1%), and RNAse (20 μg/mL) for 30 min. Data were acquired on a BD FACScan flow cytometer using CellQuest software (BD Immunocytometry Systems, San Jose, Calif.) and analyzed by using FlowJo software (Tree Star, Inc., Ashland, Oreg.).
It was investigated whether the reduced proliferation that we observed with IRAK-1,-4 inhibitor (FIG. 11 and FIG. 12) was a result of cell cycle arrest or apoptosis. CCRF-CEM cells were treated with IRAK-1,-4 inhibitor for 24, 48, 72, and 96 hours.

[2] = test system: panel of 27 other kinases; conditions: supplier (EMD Millipore) description, cited from earlier work
CCRF-CEM cells [3] = test: Cellular senescence assay (SA-β-gal); format: cell-based, human; conditions: 5 μM, within 48 hours, maintained to 96 hour, FIG. 15A
Protocol: Analysis of senescence-associated β-galactosidase (SA-β-gal) activity was performed using the 96-Well Cellular Senescence Assay Kit (Cell Biolabs, San Diego, Calif.) as per the manufacturer's protocol. In brief, cells were washed with PBS, lysed with cell lysis buffer, and incubated at 37° C. with SA-β-gal substrate for 1 hour. A quantitative Cellular Senescence Assay Kit (SA-β-gal, Fluorometric) (Cell Biolabs, San Diego, Calif.) was used for more quantitative measurement of SA-β-gal activity by flow cytometry. Briefly, control and treated CCRF-CEM cells were incubated with 1× cell pretreatment solution in culture medium for 2 hrs, and the fluorogenic substrate was then directly added into the culture. After 4 hrs, the cells were washed and analyzed by flow cytometry.

A375 melanoma cells = test: Western blot of cleaved PARP and caspase-3; format: cell-based, human; conditions: for levels of cleaved PARP and caspase-3: 48 hrs, FIG. 8D
Protocol: FIG. 8. […] (A) A375 and Malme-3M melanoma cells were cultured with or without 2.5 μM of IRAK-1,-4 and in the presence varying concentrations of vinblastine, cisplatin or 5′ Fluorouracil. Forty-eight hours later apoptosis was evaluated by staining cells with annexin-V and propidium iodide and analyzed by flow cytometry. (B) A375 cells were transfected via electroporation with siRNA-IRAK-1,-4. IRAK-1 protein levels were examined by Western blotting. […], A375-psiRNA-hIRAK-1, A375-psiRNA-hIRAK-4, or cells expressing both psiRNA-hIRAK-1 and -4 were cultured in the presence of vinblastine (100 nmol/L) for 48 hours and apoptosis was examined by flow cytometry. (C) A375 melanoma cells were cultured in the presence of vehicle alone (DMSO) or various concentrations of IRAK-1,-4. Forty-eight hours later cell lysates were used to analyze the expression of levels of cleaved PARP or caspase-3 by Western blots. (D) A375 melanoma cells were cultured with or without 2.5 μM of IRAK.-1,-4 and in the presence or absence of vinblastine for 48 hrs. PARP and caspase-3 levels were determined by Western blot.
Total cell extracts were prepared from melanoma cells. […] Melanoma tissue arrays were purchased from US Biomax, Inc (Rockville, Md.). For immunohistochemical staining samples were stained with mouse monoclonal anti-human phosphor-IRAK.-4 antibody (Abnova; dilution, 3.5 μg/ml) or normal mouse serum. Tissue histology sections (5-μm-thick) were deparaffinized, hydrated, heated in boiling 10 mmol/L sodium citrate (pH 6.0), for antigen retrieval, for 30 min and washed in Tris buffer. Peroxide blocking was done with 3% […] in methanol at room temperature for 15 min, followed by 10% fetal bovine serum in TBS-t for 30 min at room temperature. Primary antibody incubation was done overnight at 4° C. Secondary antibody incubation with horse anti-mouse (1:200; Vector Laboratories, Burlingame, Calif.) was done for 1 hr, followed by application of diaminobenzidine chromogen for 5 min. The slides were then counterstained with hematoxylin and topped with a coverslip. IHC specimens were analyzed using “quick score” system in which the intensity of the immunohistochemical reaction was scored by multiplying the intensity 1 (weak), 2 (moderate), and 3 (strong) and the proportion of cells staining positively 0 (<10%), 1 (10-25%), 2 (26-50%), 3 (51-75%) or 4 (>75%).

O=C(Nc1nc2ccccc2n1CCN1CCOCC1)c1cccc([N+](=O)[O-])c1 [IRAK-1,-4 inhibitor]
decrease of percentage of cells in S phase (CCRF-CEM cells [1]; FIG. 14C): ~30%
percentage of cells in G0/G1 phase (CCRF-CEM cells [1]; after 96 hours): 50%
percentage of cells in G0/G1 phase (CCRF-CEM cells [1]; within 24 hours (from 25%)): 43%
activity against a panel of 27 other kinases [2]: little to no activity
activity against a panel of 27 other kinases ([2]; listed as IRAK.-1,-4 inhibitor): little activity
increase of SA-β-gal activity (CCRF-CEM cells [3]): three-fold
levels of cleaved PARP and caspase-3 (A375 melanoma cells; 2.5 μmol/L IRAK-1,-4 inhibitor combined with vinblastine): increased the levels
active caspase-3 (A375 melanoma cells; 10 μM, 48 h, FIG. 8C): detected
cleaved PARP (A375 melanoma cells; concentration-dependent, 48 h, FIG. 8C): Enhanced accumulation
levels of cleaved PARP and caspase-3 (A375 melanoma cells; single agent alone): little effect

From patent US9464326B2, “Total and phosphorylated IL-1 receptor-associated kinase-1 and IL-1 receptor-associated kinase-4 as a biomarker for cancer progression and chemotherapy resistance” (University of Maryland, Baltimore, priority 2012, dated 2016)
